The values that follow come from PubChem BioAssay AID504539 (Broad Institute, 2011).

Active and inactive are the calls of the source. The rule behind the calls is not given here. Bounds are passed on as bounds.

System in one experiment: not listed separately
Kind of experiment: prion protein 5' UTR mRNA inhibitors – cell-based, plate reader, cherry-picked samples, dose response (AID 504539). The settings on record: Cell-based prion protein 5' UTR reporter, plate reader; at 5 µM (top of the series).
For the molecule `N#Cc1cn(C2OC(CO)C(O)C2O)c2ncnc(N)c12` (centres undefined), the activity change, negative = inhibition was -30.1% (inactive). For the molecule `COc1ccc(Nc2nc(-c3c(C)nc4ncccn34)cs2)cc1`, the activity change, negative = inhibition is -31.6% (inactive). Regarding `CCOc1ccc(C2=Nn3c(nnc3-c3ccccc3OC)SC2)cc1`, the activity change, negative = inhibition is -38.1% (inactive). For the molecule `Cn1nnc2cc(C(=O)NC3CCCCC3)ccc21`, the activity change, negative = inhibition was 46.3% (inactive). Still for that read-out and setting: the same measure for `O=C(NNC(=O)c1cccs1)c1ccco1`: 6.33% (inactive). For the molecule `O=C(NN1C(=O)C2C3C=CC(C4CC34)C2C1=O)c1ccc(Br)cc1` (centres undefined), the activity change, negative = inhibition was 108% (inactive).

With `CCc1ccc(/C=C2\SC(=S)N(CCCC(=O)Nc3ccccn3)C2=O)cc1`, the activity change, negative = inhibition was -23.5% (inactive). `Cc1ccc(S(=O)(=O)Nc2nc3ccccc3s2)cc1[N+](=O)[O-]`: the activity change, negative = inhibition was 25.2% (inactive).

In another experiment the test system is Cell-based prion protein 5' UTR reporter, plate reader. The description is as above.
Conditions: not given
For `Cc1ccc(CCC(=O)Nc2ncc(Cc3cc(Cl)ccc3Cl)s2)o1`, the AC50 (as a rule, the concentration at which the activity in the assay is half-maximal) is 841 nM. With `COc1ccc(N=CC2=C(O)c3ccccc3C2=O)c(OC)c1`, the AC50 is 1170 nM.

For `CC(=O)CSc1ccc(-c2nc3cc(C)c(C)cc3[nH]2)cn1`, the half-maximal activity concentration (AC50) is 434 nM. Consider `COc1cc2c(c(OC)c1O)-c1ccc(OC)c(=O)cc1C(NC(=O)C(F)(F)F)CC2` (centres undefined), for which the AC50 was 140 nM. For `Cc1cc2sc3ccc(C#CC4(O)CCCCC4)cc3c(=O)c2cc1C`, the AC50 is less than 38 nM. For the molecule `Cc1ccc(C(=O)O/N=C(\N)c2ccccc2)c(Cl)c1`, the AC50 was 948 nM. Take `CCOC(=O)c1[nH]c2c(c1C)C(=O)CC(c1ccco1)C2` (centres undefined): the AC50 is 360 nM. The same measure, in the same setting: the same measure for `Clc1ccc(-n2ncc3c(N4CCCCCC4)ncnc32)cc1`: 795 nM; for `Cc1cccc(-n2ncc3c(N(C)C4CCCCC4)ncnc32)c1`: 796 nM; for `COc1cccc2c1C(=O)c1c(O)c3c(c(O)c1C2=O)C[C@@](O)(C(=O)CO)C[C@@H]3O[C@H]1C[C@H](N)[C@H](O)[C@H](C)O1`: 650 nM. Still for that read-out and setting: the same measure for `COc1cc(/C=C2\COC/C(=C\c3cc(OC)c(OC)c(OC)c3)C2=O)cc(OC)c1OC`: 788 nM. Regarding `Cc1cc(C(=O)COC(=O)c2ccccc2Br)c(C)n1CC1CCCO1` (centres undefined), the AC50 is 90 nM.

In the case of `C=C1CC(Cn2cc(Br)c(=O)[nH]c2=O)(c2ccc(-c3ccccc3)cc2)OC1=O` (centres undefined), the AC50 is 1160 nM. With `O=C(NCCc1ccccc1F)c1ccc2c(c1)OCCO2`, the AC50 is 140 nM. As for `Cc1cc(C(=O)CSc2nnc3ccccn23)c(C)n1-c1ccccc1`, the AC50 is 480 nM. Consider `CCC(=O)Nc1cc2nn(-c3ccc(C)cc3)nc2cc1C`, for which the AC50 was 465 nM. Consider `O=C(c1ccc(Br)cc1)c1cc([N+](=O)[O-])ccc1N1CCCCC1`, for which the AC50 was 628 nM. With `Cc1ccc(Nc2nc(-c3c(C)nc4ncccn34)cs2)cc1`, the AC50 was 168 nM. With `CCCCN=C[C@]12CCC(O)CC1(O)CCC1[C@@H]2CC[C@]2(C)[C@H](C3C=CC(=O)O3)CCC12O` (some centres undefined), the AC50 is 243 nM.

`CC(C)(C)c1ccc(Oc2ccc(N)cc2)cc1`: the AC50 was 248 nM. On the same count and under the same terms, the same measure for `Cn1cc(/C=N/n2cnc3scc(-c4ccc(Cl)cc4)c3c2=O)c2ccccc21`: 499 nM. `c1ccc(-c2noc(-c3ccc4ccccc4c3)n2)nc1`: the AC50 is 158 nM. Turning to `O=C1C(=C2SCCCS2)CC/C1=C\c1ccc(F)cc1`, the AC50 was 292 nM. On to `CC(C)c1ccc(-c2nc3ccccc3s2)cc1`, for which the half-maximal activity concentration (AC50) is less than 38 nM.

With `Cc1cc(C2=NNC(=NC3CC3)SC2)c(C)n1-c1ccccc1F`, the concentration at half-maximal activity (AC50) is less than 38 nM. Regarding `CCCCCN1C=CC(=C2C(=O)c3ccccc3C2=O)C=C1`, the AC50 was 248 nM. Regarding `CSc1nc(-c2ccccc2)nc(C(Cl)Cl)n1`, the AC50 is 1270 nM. Consider `COc1ccc(C(=O)O/N=C(\N)c2ccccn2)cc1`, for which the AC50 is 99 nM. The same measure, in the same setting: the same measure for `O=c1c(Cl)c(N2CCCCC2)cnn1-c1nc2ccccc2[nH]1`: 501 nM; for `C=CCN=C1NN=C(c2ccc3c(c2)OCCO3)CS1`: 411 nM. As to `Cc1[nH]nc2ccc(-c3cncc(OC[C@@H](N)Cc4c[nH]c5ccccc45)c3)cc12`, the AC50 is 335 nM.
